Laboratory results reported in patent publication US20260365670A1, “EGFR INHIBITORS AND USES THEREOF” (DIZAL (JIANGSU) PHARMACEUTICAL CO., LTD., priority 2022, published 2026).
Read-outs that look alike come from different tables or passages of the source.

Tests used:
EGFR wild type = target: T1, EGFR wild type (Homo sapiens, UniProt P00533); assay: Inhibition of EGFR wild type biochemical enzymatic activity (HTRF); conditions: EGFR WT, 1 mM ATP, 1 h, room temperature, read-out: IC50 (nM) @WT
T1 construct: purchased Carna Bio
Experimental: (§1) Biological Example 1: Inhibition of EGFR WT and Mutant Biochemical Enzymatic Activity
(§2) The inhibition potency of compounds against these enzymes was assessed using Homogenous Time Resolved Fluorescence approach (HTRF, CisBio. Cat No. 62TKOPEJ).
(§3) Inhibitory effects of the compounds were determined by measuring the enzymatic activity of EGFR enzyme phosphorylates 1 μM TK Substrate-biotin in the presence of 1 mM adenosine-5′-triphosphate (ATP) and varying concentrations of the test compound. The enzyme reaction buffer contains 5 mM MgCl2, 1 mM MnC12, 0.01% CHAPS, 1 mM dithiothreitol (DTT), 0.5% dimethylsulfoxide (DMSO), and 1× supplemented enzymatic buffer. The WT and mutant EGFR enzymes (SignalChem) were added to plates containing inhibitors, followed by activation of the kinase reaction by addition of ATP and peptide substrates. After incubation for 1 h at room temperature, the reaction was stopped by the addition of the detection reagent mix containing EDTA. The fluorescence was measured at 615 nm and 665 nm, respectively with excitation wavelength at 320 nm. The calculated signal ratio of 665 nm/615 nm is proportional to the kinase activity. The concentration of compound producing 50% inhibition of the respective kinase (IC50) was calculated using four-parameter logistic fit with XL-FIT.

EGFR L858R = target: T2, EGFR L858R (Homo sapiens, UniProt P00533, L858R); assay: Inhibition of EGFR L858R biochemical enzymatic activity (HTRF); conditions: 1 mM ATP, 1 h, room temperature, read-out: IC50 (nM) @L858R
T2 construct: purchased Carna Bio
Experimental: as §1, §2, §3

EGFR Exon19Del/T790M = target: T3, EGFR Exon19Del/T790M (Homo sapiens, UniProt P00533, DEL746-750/T790M); assay: Inhibition of EGFR Exon19Del/T790M biochemical enzymatic activity (HTRF); conditions: EGFR Del19-T790M, 1 mM ATP, 1 h, room temperature, read-out: IC50 (nM) @Del19-T790M
T3 construct: purchased Carna Bio
Experimental: as §1, §2, §3

[1] = target: T4, EGFR[T790M/C797S/d746-750] (Homo sapiens, UniProt P00533, C797S/DEL746-750/T790M); assay: Inhibition of EGFR[T790M/C797S/d746-750] biochemical enzymatic activity (HTRF); conditions: EGFR T790M-C797S-Del19, 1 mM ATP, 1 h, room temperature, read-out: IC50 (nM) @T790M - C797S - Del19
T4 construct: purchased Carna Bio
Experimental: as §1, §2, §3

EGFR[T790M/C797S/L858R] = target: T5, EGFR[T790M/C797S/L858R] (Homo sapiens, UniProt P00533, C797S/L858R/T790M); assay: Inhibition of EGFR[T790M/C797S/L858R] biochemical enzymatic activity (HTRF); conditions: EGFR T790M-C797S-L858R, 1 mM ATP, 1 h, room temperature, read-out: IC50 (nM) @T790M- C797S - L858R
T5 construct: purchased Carna Bio
Experimental: as §1, §2, §3

EGFR L858R/T790M = target: T6, EGFR L858R/T790M (Homo sapiens, UniProt P00533, L858R/T790M); assay: Inhibition of EGFR L858R/T790M biochemical enzymatic activity (HTRF); conditions: EGFR L858R-T790M, 1 mM ATP, 1 h, room temperature, read-out: IC50 (nM) @L858R-T790M
T6 construct: purchased Carna Bio
Experimental: as §1, §2, §3

EGFR (C797S L858R) = target: T7, EGFR (C797S L858R) (Homo sapiens, UniProt P00533, C797S/L858R); assay: Inhibition of EGFR (C797S L858R) biochemical enzymatic activity (HTRF); conditions: EGFR L858-C797S, 1 mM ATP, 1 h, room temperature, read-out: IC50 (nM) @L858-C797S
T7 construct: purchased signalchem
Experimental: as §1, §2, §3

EGFR (d746-750 C797S) = target: T8, EGFR (d746-750 C797S) (Homo sapiens, UniProt P00533, C797S/DEL746-750); assay: Inhibition of EGFR (d746-750 C797S) biochemical enzymatic activity (HTRF); conditions: EGFR Del19-C797S, 1 mM ATP, 1 h, room temperature, read-out: IC50 (nM) @Del19-C797S
T8 construct: purchased signalchem
Experimental: as §1, §2, §3

EGFR Exon19Del = target: T9, EGFR Exon19Del (Homo sapiens, UniProt P00533, DEL746-750); assay: Inhibition of EGFR Exon19Del biochemical enzymatic activity (HTRF); conditions: EGFR Del19, 1 mM ATP, 1 h, room temperature, read-out: IC50 @Del19
T9 construct: purchased Carna Bio
Experimental: as §1, §2, §3

[2] = test system: Ba/F3 cells expressing EGFR mutations; assay: Cell proliferation assay, Ba/F3 cells expressing EGFR mutations (CellTiter-Glo, 72 hours); format: cell-based; conditions: CellTiter-Glo
Experimental: (§4) Biological Example 2: Cell Proliferation Assays
(§5) Ba/F3 cells expressing EGFR mutations were seeded in 384-well plates at 5000 cells/well in RPMI1640 medium containing […]. PC-9 at 500 cells/well was seeded into 384-well plates in RPMI1640 medium with 10% FBS. After overnight incubation, the assay plates were dosed with compounds at a series of concentrations. Alongside dosing the assay plates, the day 0 plate was processed using CellTiter-Glo® Luminescent Cell Viability Assay (Promega) to measure the number of viable cells (G0). The assay plates were further incubated for 72 hours and the number of viable cells (G3) was measured. The percentage of proliferation was calculated as: […]=100×(G3 value of sample well−G0 value)/(G3 value of DMSO control−G0 value). The concentration of compound producing 50% proliferation inhibition (GI50) was further calculated in best-fit curves using XLFit software. N/A=not available.

PC-9 = assay: Cell proliferation assay, PC-9 cells (CellTiter-Glo, 72 hours); format: cell-based; conditions: PC9 cells, CellTiter-Glo, read-out: PC9 GI50
Experimental: as §4, §5

[3] = BaF3 cells, EGFR DEL19-C797S, read-out: DEL19-C797S/BaF3 GI50
[4] = BaF3 cells, EGFR DEL19-T790-C797S, read-out: DEL19-T790-C797S/BaF3 GI50
[5] = BaF3 cells, EGFR L858R, read-out: L858R/BaF3 GI50
[6] = BaF3 cells, EGFR L858R-C797S, read-out: L858R-C797S/BaF3 GI50
[7] = BaF3 cells, EGFR L858R-T790-C797S, read-out: L858R-T790-C797S/BaF3 GI50
[8] = BaF3 cells, EGFR L858R-T790M, read-out: L858R-T790M/BaF3 GI50
[9] = EGFR DEL19-T790M, read-out: DEL19-T790M GI50

T1 sequence (P00533 25-1210): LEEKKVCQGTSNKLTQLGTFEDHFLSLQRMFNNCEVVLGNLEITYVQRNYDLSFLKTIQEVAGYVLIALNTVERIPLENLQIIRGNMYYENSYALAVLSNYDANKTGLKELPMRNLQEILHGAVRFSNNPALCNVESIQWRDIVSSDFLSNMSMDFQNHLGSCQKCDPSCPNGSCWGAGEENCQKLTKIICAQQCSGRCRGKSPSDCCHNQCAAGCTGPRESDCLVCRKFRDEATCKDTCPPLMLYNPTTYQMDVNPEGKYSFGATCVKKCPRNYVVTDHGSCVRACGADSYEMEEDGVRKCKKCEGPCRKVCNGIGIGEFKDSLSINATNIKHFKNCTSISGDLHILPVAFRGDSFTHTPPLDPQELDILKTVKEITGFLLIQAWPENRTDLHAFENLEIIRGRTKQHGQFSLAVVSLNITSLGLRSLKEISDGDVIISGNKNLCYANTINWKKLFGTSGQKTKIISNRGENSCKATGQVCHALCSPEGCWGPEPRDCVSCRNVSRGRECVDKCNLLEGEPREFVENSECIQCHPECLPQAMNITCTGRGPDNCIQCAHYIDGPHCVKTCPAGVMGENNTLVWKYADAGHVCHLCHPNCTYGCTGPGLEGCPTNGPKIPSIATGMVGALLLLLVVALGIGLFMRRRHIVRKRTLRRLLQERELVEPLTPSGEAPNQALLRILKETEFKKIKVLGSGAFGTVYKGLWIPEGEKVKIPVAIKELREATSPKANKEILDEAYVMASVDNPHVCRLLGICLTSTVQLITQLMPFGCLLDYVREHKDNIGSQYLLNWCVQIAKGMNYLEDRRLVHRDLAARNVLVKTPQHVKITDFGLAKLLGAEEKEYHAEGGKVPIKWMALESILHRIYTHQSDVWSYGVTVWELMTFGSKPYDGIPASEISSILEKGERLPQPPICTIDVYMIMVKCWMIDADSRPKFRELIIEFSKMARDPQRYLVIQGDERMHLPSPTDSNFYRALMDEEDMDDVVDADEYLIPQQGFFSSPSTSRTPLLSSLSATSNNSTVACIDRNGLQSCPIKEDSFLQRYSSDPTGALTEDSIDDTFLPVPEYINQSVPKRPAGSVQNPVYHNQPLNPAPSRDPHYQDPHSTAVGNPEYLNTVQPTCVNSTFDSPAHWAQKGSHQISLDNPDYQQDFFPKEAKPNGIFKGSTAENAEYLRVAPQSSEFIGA
T2 sequence (P00533 25-1210 L858R): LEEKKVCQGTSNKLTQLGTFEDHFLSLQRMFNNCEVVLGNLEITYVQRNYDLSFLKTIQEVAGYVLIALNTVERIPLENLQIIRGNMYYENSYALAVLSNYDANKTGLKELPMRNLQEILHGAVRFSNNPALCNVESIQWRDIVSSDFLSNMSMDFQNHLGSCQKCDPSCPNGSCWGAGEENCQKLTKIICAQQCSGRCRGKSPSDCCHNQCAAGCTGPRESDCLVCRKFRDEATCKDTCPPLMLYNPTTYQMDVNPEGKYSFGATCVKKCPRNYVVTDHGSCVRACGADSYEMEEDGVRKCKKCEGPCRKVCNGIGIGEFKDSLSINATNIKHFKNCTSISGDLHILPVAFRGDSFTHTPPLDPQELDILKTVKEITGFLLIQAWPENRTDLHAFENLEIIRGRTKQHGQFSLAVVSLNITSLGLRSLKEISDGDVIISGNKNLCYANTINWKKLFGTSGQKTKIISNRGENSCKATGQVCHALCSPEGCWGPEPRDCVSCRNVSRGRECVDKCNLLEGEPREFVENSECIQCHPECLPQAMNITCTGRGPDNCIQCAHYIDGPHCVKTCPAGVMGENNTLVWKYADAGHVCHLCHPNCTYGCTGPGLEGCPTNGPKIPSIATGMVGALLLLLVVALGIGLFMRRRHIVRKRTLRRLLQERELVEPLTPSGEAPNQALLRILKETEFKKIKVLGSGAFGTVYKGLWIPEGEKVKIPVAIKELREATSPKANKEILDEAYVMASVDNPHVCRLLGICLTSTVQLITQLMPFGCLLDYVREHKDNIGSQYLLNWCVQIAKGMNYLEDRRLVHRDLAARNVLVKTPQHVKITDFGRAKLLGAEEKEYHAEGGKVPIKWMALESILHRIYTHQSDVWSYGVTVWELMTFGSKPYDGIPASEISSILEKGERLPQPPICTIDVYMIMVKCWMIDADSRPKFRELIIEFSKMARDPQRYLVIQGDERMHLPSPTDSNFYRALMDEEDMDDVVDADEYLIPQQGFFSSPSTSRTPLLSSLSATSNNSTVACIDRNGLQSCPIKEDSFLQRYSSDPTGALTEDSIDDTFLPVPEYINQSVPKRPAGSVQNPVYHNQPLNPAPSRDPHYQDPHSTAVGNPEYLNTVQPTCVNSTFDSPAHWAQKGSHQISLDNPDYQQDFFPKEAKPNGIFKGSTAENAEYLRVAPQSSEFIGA
T7 sequence (P00533 25-1210 C797S/L858R): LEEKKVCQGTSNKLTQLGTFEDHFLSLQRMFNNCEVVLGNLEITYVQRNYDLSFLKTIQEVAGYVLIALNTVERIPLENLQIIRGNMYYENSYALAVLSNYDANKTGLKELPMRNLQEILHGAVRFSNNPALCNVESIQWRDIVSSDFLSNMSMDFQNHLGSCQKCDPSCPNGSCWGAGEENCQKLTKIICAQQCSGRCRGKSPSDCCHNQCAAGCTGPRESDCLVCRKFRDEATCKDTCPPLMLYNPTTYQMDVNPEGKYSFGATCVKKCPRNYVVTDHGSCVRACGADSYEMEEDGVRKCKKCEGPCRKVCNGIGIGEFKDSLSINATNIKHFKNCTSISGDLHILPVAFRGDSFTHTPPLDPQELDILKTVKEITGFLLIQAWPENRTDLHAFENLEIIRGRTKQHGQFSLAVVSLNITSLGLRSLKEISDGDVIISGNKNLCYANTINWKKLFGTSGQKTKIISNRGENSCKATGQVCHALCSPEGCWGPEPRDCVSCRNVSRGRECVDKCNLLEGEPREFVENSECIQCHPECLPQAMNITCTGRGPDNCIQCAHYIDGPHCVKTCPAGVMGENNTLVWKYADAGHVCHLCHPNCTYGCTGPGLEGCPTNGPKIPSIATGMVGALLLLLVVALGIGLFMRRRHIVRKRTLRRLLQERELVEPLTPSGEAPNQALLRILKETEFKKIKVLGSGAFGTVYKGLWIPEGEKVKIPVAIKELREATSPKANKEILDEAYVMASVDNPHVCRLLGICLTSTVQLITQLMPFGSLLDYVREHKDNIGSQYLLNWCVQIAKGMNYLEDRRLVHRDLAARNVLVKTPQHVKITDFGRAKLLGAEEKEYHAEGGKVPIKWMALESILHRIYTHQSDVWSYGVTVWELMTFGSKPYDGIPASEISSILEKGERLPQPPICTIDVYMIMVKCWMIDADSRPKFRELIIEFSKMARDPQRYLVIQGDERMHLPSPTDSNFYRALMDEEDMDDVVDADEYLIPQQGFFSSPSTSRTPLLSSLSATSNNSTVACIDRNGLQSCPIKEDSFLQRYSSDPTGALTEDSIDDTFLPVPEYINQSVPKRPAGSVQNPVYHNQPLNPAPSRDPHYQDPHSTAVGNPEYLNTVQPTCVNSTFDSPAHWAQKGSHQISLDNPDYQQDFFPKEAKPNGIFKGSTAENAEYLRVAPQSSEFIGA
T3 sequence (P00533 with tags, fused parts or gaps DEL746-750/T790M limits assumed): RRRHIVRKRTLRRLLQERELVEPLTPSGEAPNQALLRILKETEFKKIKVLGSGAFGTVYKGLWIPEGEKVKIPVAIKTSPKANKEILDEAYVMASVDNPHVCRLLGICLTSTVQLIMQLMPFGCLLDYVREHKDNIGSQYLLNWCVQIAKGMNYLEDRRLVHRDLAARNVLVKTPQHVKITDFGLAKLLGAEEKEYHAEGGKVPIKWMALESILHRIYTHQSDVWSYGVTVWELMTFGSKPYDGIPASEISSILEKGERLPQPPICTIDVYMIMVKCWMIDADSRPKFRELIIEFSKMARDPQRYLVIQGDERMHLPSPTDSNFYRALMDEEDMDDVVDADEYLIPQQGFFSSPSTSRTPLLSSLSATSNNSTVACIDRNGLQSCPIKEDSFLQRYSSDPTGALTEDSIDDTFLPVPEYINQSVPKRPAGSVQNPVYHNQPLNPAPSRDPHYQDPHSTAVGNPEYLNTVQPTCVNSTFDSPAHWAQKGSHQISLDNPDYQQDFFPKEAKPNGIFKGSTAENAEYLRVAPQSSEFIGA
T8 sequence (P00533 with tags, fused parts or gaps DEL746-750/C797S limits assumed): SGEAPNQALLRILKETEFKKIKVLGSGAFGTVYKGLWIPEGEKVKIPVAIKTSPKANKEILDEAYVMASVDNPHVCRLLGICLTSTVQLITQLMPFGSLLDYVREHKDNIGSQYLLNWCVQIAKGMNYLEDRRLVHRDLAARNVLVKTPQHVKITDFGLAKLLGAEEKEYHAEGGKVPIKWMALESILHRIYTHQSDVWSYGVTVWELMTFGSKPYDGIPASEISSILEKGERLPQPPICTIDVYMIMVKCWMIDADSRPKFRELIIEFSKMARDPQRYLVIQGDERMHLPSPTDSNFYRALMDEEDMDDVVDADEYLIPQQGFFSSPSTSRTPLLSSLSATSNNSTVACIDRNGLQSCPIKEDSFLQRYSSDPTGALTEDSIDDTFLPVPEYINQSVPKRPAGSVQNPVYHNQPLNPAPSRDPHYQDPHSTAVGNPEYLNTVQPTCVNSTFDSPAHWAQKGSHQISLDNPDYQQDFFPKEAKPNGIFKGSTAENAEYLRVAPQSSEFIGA

| IC50 (EGFR wild type) | IC50 (EGFR L858R) | IC50 (EGFR Exon19Del/T790M) | IC50 [1] | IC50 (EGFR[T790M/C797S/L858R]) | IC50 (EGFR L858R/T790M) | IC50 (EGFR (C797S L858R)) | IC50 (EGFR (d746-750 C797S)) | IC50 (EGFR Exon19Del) | GI50 [2, 3] | GI50 [2, 4] | GI50 [2, 5] | GI50 [2, 6] | GI50 [2, 7] | GI50 [2, 8] | GI50 [2, 9] | GI50 (PC-9) | SMILES |
| --- | --- | --- | --- | --- | --- | --- | --- | --- | --- | --- | --- | --- | --- | --- | --- | --- | --- |
| > 5000 nM | 1110 nM | > 5000 nM | > 5000 nM | > 5000 nM | > 5000 nM | > 5000 nM | 464 nM | 0.456 µM | 0.102 µM | 0.326 µM | 0.32 µM | 0.125 µM | 0.368 µM | 0.375 µM | 0.212 µM | 0.341 µM | CN1CCC2(CC1)CN(c1ccc3nc4n(c3c1)C13CCC(CN(CCOc5c(cnn5C)-c5cc(cn(C)c5=O)C(=O)N4)C1)C3)C2 (single isomer, unassigned) [Example A77A] |
| > 5000 nM | > 5000 nM | > 5000 nM | > 5000 nM | > 5000 nM | > 5000 nM | > 5000 nM | 1580 nM | 1.43 µM | 0.251 µM | 0.999 µM | 0.99 µM | 0.36 µM | 1.91 µM | 1.12 µM | 0.882 µM | 0.993 µM | CN1CCC2CN(c3ccc4nc5n(c4c3)C34CCC(CN(CCOc6c(cnn6C)-c6cc(cn(C)c6=O)C(=O)N5)C3)C4)CC21 (single isomer, unassigned) [Example A79A] |
| > 5000 nM | > 5000 nM | > 5000 nM | 2190 nM | > 5000 nM | > 5000 nM | > 5000 nM | 530 nM | 0.49 µM | 0.057 µM | 0.17 µM | 0.1 µM | 0.125 µM | 0.126 µM | 0.315 µM | 0.136 µM | 0.381 µM | CN1CCN(C2CCN(c3ccc4nc5n(c4c3)C34CCC(CN(CCOc6c(cnn6C)-c6cc(cn(C)c6=O)C(=O)N5)C3)C4)C2)CC1 (single isomer, unassigned) [Example A80A2, 15,21-Dimethyl-5-[3-(4-methylpiperazin-1-yl)pyrrolidin-1-yl]-23-oxa-2,9,11,15,20,21,26-heptaazaheptacyclo[24.4.1.1^{1,28}.1^{13,17}.0^{2,10}.0^{3,8}.0^{18,22}]tritriaconta-3,5,7,9,13,17(33),18(22),19-octaene-12,16-dione] |
